Measured values taken from patent publication US10709687B2, “FLT3 receptor inhibitor at low dosage for the treatment of neuropathic pain” (INSTITUT NATIONAL DE LA SANTE ET DE LA RECHERCHE MEDICALE …, priority 2016, dated 2020).
Like-named read-outs stand apart in the source and are kept apart here.

Experiments:
[1] = cited from earlier work
[2] = test system: nerve injury-induced mechanical pain hypersensitivity; experiment: Spinal Nerve Ligation (SNL) model, paw pressure test; assay type: in vivo, rat; settings: for maximal inhibition on the SNL model in rat (dose): Method 1, no experimental details given; for Human Equivalent Dose (HED) from SNL rat dose: allometric FDA factor for the rat 6.2, human body weight 60 kg
Experimental: Adult Sprague Dawley rats (300-340 gr) (Janvier LABS, Le Genest Saint-Isle, France) were used according to the guidelines of the International Association for the Study of Pain. Rats were housed in cages with a 12/12 hr light/dark cycle and fed food and water ad libitum. Behavioral responsiveness of the rats was tested following ten days of habituation to the testing environment and the observer. Left side L5 spinal nerve was injured as described by Kim and Chung (1992) Pain 50, 355-363. Anesthesia was induced and maintained with isoflurane. A midline incision was made at the L3-S2 level and the dorsal vertebral column from L4 to S2 was exposed. Part of the L6 transverse process was carefully removed with fine rongeurs. The L5 spinal nerve were isolated and tightly ligated distal to the DRG with a 4-0 silk suture. The wound was closed in two layers using absorbable sutures. A similar procedure was performed for the sham surgery, except that spinal nerve was not isolated and not ligated. After surgery, the posture of the sham-operated and SNL rats was closely monitored before they were used in different experiments.
Mechanical hyperalgesia was measured as the threshold to a noxious mechanical stimulus. Nociceptive thresholds (NT) were determined in handled rats by a modification of the Randall-Selitto method (Kayser et al., Brain Res 1990; 508:329-332). Briefly, a constantly increasing pressure is applied to the rat hind paw until vocalization occurs. A Basile analgesimeter (Apelex, Massy, France; stylus tip diameter, 1 mm) was used. A 600-g cut-off value was determined to prevent tissue damage.
It was administered by oral gavage at different doses in a volume of 1 ml/kg body weight in a solution of dimethylsulfoxide (DMSO) at 3%. Control animals received an equal volume of DMSO 3%.
The data are presented as means±SEM. One-way ANOVA was used to assess individual group comparisons. […] The Newman-Keuls test was used for multiple comparisons between groups.

[3] = test system: human tumor cells expressing FLT3-ITD (MV4,11); settings: mouse xenograft model; literature references in Table 1; cited from earlier work
[4] = Active (recommended or clinically efficacious) dose for treating cancer in patients; assay type: in vivo; settings: converted for a human with a body weight of 60 kg; advanced or recurrent head and neck cancers
Text: Active doses for FLT3 receptor inhibitor, according to Method 1 as described above, are the recommended doses, as appearing in the drug label when the product is marketed. […] Such information may be found via various sources well known by the person skilled in the art, such as articles, FDA data publications, labeling of marketed products, Summary of Product Characteristics (SmPC) from the European Medicine Agency (EMA), clinical trial descriptions from the US National Institute of Health (available at www.clinicaltrials.gov) and information on the outer product packaging.

[5] = test system: human tumor cells expressing FLT3-ITD (MV4,11); experiment: Tumor regression in mouse xenograft model sensitive to FLT3 inhibition; assay type: in vivo; settings: allometric FDA factor for the mouse 12.3; 60 kg
Text: The dose of FLT3 receptor inhibitor that induces tumor regression in animal models can be measured by using a mouse xenograft model, which is sensitive to FLT3 inhibition. Such a model may consist in an athymic immuno-deficient mouse implanted with human tumor cells that express a mutated, spontaneously activated, form of FLT3. […] An example of tumor cells that express FLT3-ITD is the MV4,11 cell line (Lange et al., Blood, 1987, 70:192-199).

FLT3 = target: T1, FLT3 (Mus musculus, UniProt Q00342); experiment: FL potentiation of capsaicin-induced [Ca2+]i response in DRG neurons primary culture; assay type: cell-based, mice; settings: FL 0.56 nM, capsaicin 0.5 μM
T1 construct: Primary neuronal cultures were established from lumbar (L4 to L6) dorsal root ganglia (DRG) of adult mice; endogenous in cells; host or cells: primary DRG neurons from adult mice
T1 sequence (Q00342 28-1000): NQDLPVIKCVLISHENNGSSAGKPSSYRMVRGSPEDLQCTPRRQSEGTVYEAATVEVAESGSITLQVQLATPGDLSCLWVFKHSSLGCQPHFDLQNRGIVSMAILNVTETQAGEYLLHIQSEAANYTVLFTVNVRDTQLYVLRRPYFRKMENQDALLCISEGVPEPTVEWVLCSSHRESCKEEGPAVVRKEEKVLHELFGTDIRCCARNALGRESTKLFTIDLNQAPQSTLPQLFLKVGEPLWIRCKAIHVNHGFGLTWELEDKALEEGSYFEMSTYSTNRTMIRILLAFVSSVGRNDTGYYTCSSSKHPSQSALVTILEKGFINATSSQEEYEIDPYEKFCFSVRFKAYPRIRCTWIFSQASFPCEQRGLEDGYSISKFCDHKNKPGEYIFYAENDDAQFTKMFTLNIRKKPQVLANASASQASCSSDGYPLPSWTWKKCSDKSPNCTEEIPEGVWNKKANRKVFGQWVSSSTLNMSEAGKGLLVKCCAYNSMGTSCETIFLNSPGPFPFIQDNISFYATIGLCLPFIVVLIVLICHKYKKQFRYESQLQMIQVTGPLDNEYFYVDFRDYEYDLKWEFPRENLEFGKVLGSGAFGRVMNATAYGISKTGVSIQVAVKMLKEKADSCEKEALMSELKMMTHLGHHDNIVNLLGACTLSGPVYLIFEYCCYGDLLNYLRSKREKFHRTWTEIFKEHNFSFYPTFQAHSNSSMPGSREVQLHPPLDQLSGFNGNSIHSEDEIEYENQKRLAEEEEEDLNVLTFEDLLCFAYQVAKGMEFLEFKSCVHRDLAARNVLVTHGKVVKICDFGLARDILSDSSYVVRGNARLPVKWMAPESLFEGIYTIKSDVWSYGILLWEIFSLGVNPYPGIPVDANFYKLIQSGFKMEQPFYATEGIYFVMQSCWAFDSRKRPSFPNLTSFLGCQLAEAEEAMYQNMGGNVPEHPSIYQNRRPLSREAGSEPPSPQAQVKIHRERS
Experimental: Primary neuronal cultures were established from lumbar (L4 to L6) dorsal root ganglia (DRG) of adult mice as previously described (Boudes et al, J. Neurosci. 29, 46, 10060-10068). Ganglia were treated twice with collagenase A (1 mg/ml, Roche Diagnostic, France) for 45 minutes (37° C.) and then with trypsin-EDTA (0.25%, Sigma, St Quentin Fallavier, France) for 30 minutes. They were mechanically dissociated by passing 8 to 10 times through the tip of a fire-polished Pasteur pipette in neurobasal (Life Technologies, Cergy Pontoise, France) culture medium supplemented with 10% foetal bovine serum and DNase (50 U/ml, Sigma, St Quentin Fallavier, France). Isolated cells were collected by centrifugation and suspended in neurobasal culture medium supplemented with 2% B27 (Life Technologies), 2 mM glutamine, penicillin/streptomycin (20 U/ml, 0.2 mg/ml). […]
For intracellular Ca^2+ measurements, DRG neurons were used 18-30 h after plating as described previously. […] A Fura filter cube with 400 long pass dichroic and D510/40m emission band pass was used to collect fluorescence emissions separately for each wavelength. Images were acquired and analyzed with Metafluor software (Molecular Devices). Changes in intracellular calcium concentrations ([Ca^2+]i) were monitored as changes of the ratio of the fura-2-fluorescence intensity recorded at 340 nm and 380 nm excitation wavelengths (ΔF340/380). […]

[6] = test system: inflammatory pain (CFA-induced mechanical hypersensitivity); experiment: Complete Freund's Adjuvant (CFA) inflammatory pain model, von Frey mechanical hypersensitivity; assay type: in vivo; settings: CFA mice; sunitinib 5 or 20 mg/kg; measured 1 and 2 days after administration
Experimental: Adult mice (8-10 week-old) (Janvier LABS, Le Genest Saint-Isle, France) were used according to the guidelines of the International Association for the Study of Pain. Mice were housed in cages with a 12/12 hr light/dark cycle and fed food and water ad libitum. Behavioral responsiveness of the animals was tested following ten days of habituation to the testing environment and the observer. Before testing, mice were acclimatized for 60 min in the temperature and light-controlled testing room within a plastic cylinder or on wire mesh.
A 0.6 g-von Frey filament was used for measuring punctuate hindpaw mechanical hypersensitivity with the dynamic plantar aesthesiometer (Bioseb, France). Sharp withdrawal of the stimulated hindpaw was considered as a positive response. The procedure was applied 10 times and the percentage of positive responses was calculated. Basal positive responses were recorded twice during two, consecutive days.
Inflammatory pain was produced by local injection of Complete Freund's Adjuvant (CFA), which induces a prolonged swelling that becomes maximal at 24 hrs and persists for at least 7 days (Iadarola et al., Pain. 1988; 35:313-26). […] Mechanical hypersensitivity was measured 4 days later. […]

For COc1cc(Nc2ncc(F)c(Nc3ccc4c(n3)N(COP(=O)(O)O)C(=O)C(C)(C)O4)n2)cc(OC)c1OC [Fostamatinib], the “Active dose for treating cancer (by cancer type)” value (“Active dose for treating cancer” for short) ([1]; twice a day) is given as 100-200 twice a day.

With CCc1nc(C(N)=O)c(Nc2ccc(N3CCC(N4CCN(C)CC4)CC3)c(OC)c2)nc1NC1CCOCC1 [Gilteritinib] the “maximal inhibition on the SNL model in rat (dose)” value [2] was 2 mg/kg, the “Human Equivalent Dose (HED) from SNL rat dose” value [2] was “HED = 19.4 mg” and the “Human Equivalent Dose (HED) from SNL rat dose” value ([2]; listed as gilteritinib) was 19.4 mg.

In the case of Nc1ncc(-c2cnn(CCO)c2)c2scc(-c3ccc(NC(=O)Nc4cccc(F)c4)cc3)c12 [Ilorasertib], the “minimum inhibiting dose inducing maximal tumor regression” value [3] is given as 20 mg/kg and the “Active dose for treating cancer” value ([1]; once weekly, acute myelogenous leukaemia, myelodysplastic syndrome or chronic myelomonocytic leukaemia) is given as 540 mg once weekly.

In the case of CO[C@@H]1[C@H](N(C)C(=O)c2ccccc2)C[C@H]2O[C@]1(C)n1c3ccccc3c3c4c(c5c6ccccc6n2c5c31)C(=O)NC4 [Midostaurin], the “Human Equivalent Dose (HED) from SNL rat dose” value [2] is reported as 39 mg and the “Human Equivalent Dose (HED) from SNL rat dose” value ([2]; listed as Midostaurine) is reported as “HED = 39 mg”.

In the case of C1=C/COCc2cc(ccc2OCCN2CCCC2)Nc2nccc(n2)-c2cccc(c2)COC/1 [Pacritinib], the “Active dose for treating cancer” value ([1]; once daily) is listed as 400 and the “Active dose for treating cancer” value ([1]; twice daily) is listed as 200.

With CC(C)(C)c1cc(NC(=O)Nc2ccc(-c3cn4c(n3)sc3cc(OCCN5CCOCC5)ccc34)cc2)no1 [Quizartinib] the “maximal inhibition on the SNL model in rat (dose)” value [2] was 0.77 mg/kg, the “Human Equivalent Dose (HED) from SNL rat dose” value [2] was “HED = 7.5 mg” and the “Human Equivalent Dose (HED) from SNL rat dose” value ([2]; listed as quizartinib) was 7.5 mg.

In the case of Cc1cc(C)c(/C=C2\C(=O)Nc3ccccc32)[nH]1 [Semaxinib], the “Active dose for treating cancer” value [4] is listed as 235 mg and the “Active dose for treating cancer” value ([1]; advanced or recurrent head and neck cancers) is listed as 145 mg/m^2.

For CNC(=O)c1cc(Oc2ccc(NC(=O)Nc3ccc(Cl)c(C(F)(F)F)c3)cc2)ccn1 [Sorafenib], the “minimum inhibiting dose inducing maximal tumor regression” value [3] is listed as 10 mg/kg.

In the case of CCN(CC)CCNC(=O)c1c(C)[nH]c(/C=C2\C(=O)Nc3ccc(F)cc32)c1C [Sunitinib], the “inhibiting dose giving 50% of inhibition (ID50) of SNL-induced mechanical hypersensitivity” value ([2]; SNL rats, oral) is reported as 0.015 mg/kg, the “minimal dose for maximal inhibition of pain sensitivity” value ([2]; SNL rats, oral administration, paw pressure 24 hours after administration) is reported as 0.075 mg/kg and the “Human Equivalent Dose (HED) from SNL rat dose” value [2] is reported as “HED = 0.73 mg”. The “Human Equivalent Dose (HED) from SNL rat dose” value ([2]; listed as sunitinib) was 0.73 mg, the “Human Equivalent Dose (HED) from mouse tumor regression dose” value [5] was 98 mg and the IC50 (FLT3; non-linear regression, read-out: IC50 for inhibition of FL potentiation of the [Ca2+]i peak response to capsaicin) was 0.7 nM. The “mechanical hypersensitivity (percentage of withdrawal after mechanical stimulation)” value [6] was “inactive”.

B1: FL: cytokine which is a natural ligand of the FLT3 receptor; from ABCYS SA (protein, UniProt P49771 27-235, looked up)
Fms-related tyrosine kinase 3 …: TQDCSFQHSPISSDFAVKIRELSDYLLQDYPVTVASNLQDEELCGGLWRLVLAQRWMERLKTVAGSKMQGLLERVNTEIHFVTKCAFQPPPSCLRFVQTNISRLLQETSEQLVALKPWITRQNFSRCLELQCQPDSSTLPPPWSPRPLEATAPTAPQPPLLLLLLLPVGLLLLAAAWCLHWQRTRRRTPRPGEQVPPVPSPQDLLLVEH
With B1 the “effect on [Ca2+]i peak response to capsaicin” value (FLT3) was “elicited a potentiation”.
